Test results: patent publication US20090018136A1, “METHODS AND COMPOSITIONS FOR THE TREATMENT OF VASCULAR DISEASE” (priority 2005, published 2009)

Columns and labels:
[1] = tested on: coronary blood flow velocity; conditions: BH4 infused during angiography, patients with endothelial dysfunction; cited from earlier work
[2] = tested on: subjects with sickle cell disease; assay: Phase 2a sickle cell disease study: endothelial function by EndoPAT; type: in vivo, human; conditions: preliminary findings, sickle cell disease patients treated with BH4
Protocol: This Phase 2a multicenter, open-label, dose-escalation study is designed to assess the safety and biologic activity of once daily (for 2.5, 5, and 10 mg/kg/day doses) or twice daily (for the 20 mg/kg/day dose) oral administration of 4 escalating doses of 6R-BH4 to subjects with SCD. During an optional extension phase, the study will assess the safety, tolerability, and efficacy of extended treatment with 6R-BH4. Subjects will receive oral, once-daily (for 2.5, 5, and 10 mg/kg/day) or twice-daily (for 20 mg/kg/day) doses of 6R-BH4 during a 16-week dose-escalation phase, with dose levels increasing within subjects every 4 weeks, as follows: 2.5, 5, 10, and 20 mg/kg/day. Prior to dose escalation, the each subject will be evaluated with respect to safety profile during the previous dose level, using predefined parameters. […] Endothelial function will be evaluated using Doppler echocardiogram (DE), peripheral arterial tonometry (EndoPAT), and exhaled nitric oxide (NO). The symptoms of SCD (frequency of sickle cell crises and vaso-occlusive crises), along with changes in the 6-minute-walk (MW) test, will be monitored. […] The number of tablets will be determined by the dose of sapropterin dihydrochloride, rounded to the nearest 100 mg. […]

[3] = tested on: brachial artery; assay: Study 1: brachial artery flow-mediated and nitroglycerin-mediated vasodilation by ultrasound; type: in vivo, human
Protocol: The technique was carried out as described in Prasad et al., Circulation, 2000. 101(20): p. 2349-54. Briefly, using an 11 MHz high resolution ultrasound transducer (Acuson Inc) in a temperature-controlled room, brachial diameter was measured above the antecubital fossa in the non-dominant arm. Flow-mediated vasodilation (FMD) was measured by inflating a BP cuff on the forearm to >200 mm Hg for 5 minutes, deflating rapidly, and measuring brachial diameter at 1 minute after onset of hyperemia. For all measurements three diameters were measured on three separate end-diastolic frames and averaged. To obtain the maximal brachial artery dilation that represents FMD the following equation was used: (average diameter with hyperemia−average baseline diameter)÷average baseline diameter X 100. To measure the endothelium-independent vasodilator response, subjects were given sublingual nitroglycerin 0.4 mg and the brachial diameter was measured as above after 5 minutes. To obtain endothelium-independent vasodilation the following equation was used: (average diameter post nitroglycerin-average baseline diameter)÷average baseline diameter X 100. For both study 1 and study 2, the primary end point after statistical analysis was a reduction of systolic, mean and diastolic BP during BH4 therapy. Secondary end points included improvement of endothelial function as FMD. Linear mixed effects models for repeated measures data were used to analyze change in BP from baseline to end of treatment period and differences in change between 100 mg and 200 mg dose groups. A quadratic term for week was included in the model to account for non-linear trends over the treatment period. Dose, week and week squared were the main effect terms in the model; dose by week and dose by week squared were the interaction terms in the model. Significant interaction terms indicate a difference in the pattern of change between the two dose groups. FMD data was analyzed using the two-tailed student t-test.

In the case of `C[C@H](O)[C@H](O)[C@H]1CNc2nc(N)[nH]c(=O)c2N1` [BH4, tetrahydrobiopterin], the “abnormal vasoconstriction to acetylcholine” value [1] is listed as “prevented”, the “endothelial function as measured by the EndoPAT device” value [2] is listed as “improvement” and the “Flow-mediated vasodilation of the brachial artery” value ([3]; Study 1, 6 weeks after termination of therapy, p=ns compared to baseline) is listed as 3.7±1.3%. For the same molecule, the “Flow-mediated vasodilation of the brachial artery” value ([3]; Study 1, after 8 weeks of BH4, baseline mean 3.4±1%, p=0.05, n=6) was 8.2±3.4% and the Nitroglycerin-mediated vasodilation ([3]; Study 1, after BH4, 11.9±3% before, p=0.1, remained unchanged) was 16.1±5%.
